System: LNCaP cells
Experiment: LNCaP cell viability assay (MTS)
Format: cell-based
Details: Homo sapiens, LNCaP, 48 h, LNCaP cell line, 48 hours treatment
Protocol: LNCaP cell line was used for the cell viability assay. LNCaP cells were plated in 96-well plates at a density of 5000 cells per well. After 24 hours of plating, the cells were treated with increasing doses of compound 1-100 ranging from 1 μM to 80 μM. Relative cell numbers were analyzed after 48 hours using 3-(4,5-dimethylthiazol-2-yl)-5-(3-carboxymethoxyphenyl)-2-(4-sulfophenyl)-2H-tetrazolium (MTS) assay (Promega) according to the manufacturer's instructions.
The cell viability data was analyzed with GraphPad Prism software. The values were log transformed and analyzed with non-linear regression (curve-fit) using log(inhibitor) vs. response—variable slope (four parameters) and constraining the bottom to equal zero. Unless otherwise indicated, the GI50 values provided in Table 35 correspond to the LNCaP cell viability assays.

Row | Structure (SMILES) | GI50 [µM]
1 | N=S(=O)(NC1(c2ccc(Cl)cc2)CCNC1)c1ccc(OC(F)(F)F)cc1 (centres unmarked) [Compound 63, N-(3-(4-chlorophenyl)pyrrolidin-3-yl)-4-(trifluoromethoxy)benzenesulfonimidamide] | 38.4
2 | O=S(=O)(NC1(c2ccc(Cl)cc2)CCNC1)c1ccc(OC(F)(F)F)cc1 (centres unmarked) [Compound 39, N-(3-(4-chlorophenyl)pyrrolidin-3-yl)-4-(trifluoromethoxy)benzene-sulfonamide] | 14
3 | COC(=O)[C@@H]1Cc2ccccc2[C@@H]1NS(=O)(=O)c1ccc(OC(F)(F)F)cc1 (racemic) [Compound 4] | 40.4
4 | CCOc1cc(CN2CCC(NS(=O)(=O)c3ccc(OC(F)(F)F)cc3)CC2)ccc1O [Compound 30, N-(1-(3-ethoxy-4-hydroxybenzyl)piperidin-4-yl)-4-(trifluoromethoxy)benzene-sulfonamide] | 30
5 | O=S(=O)(N[C@@]1(c2ccc(Cl)cc2)CNC[C@@H]1F)c1ccc(OC(F)(F)F)cc1 (racemic) [Compound 79, N-((3S,4S)-3-(4-chlorophenyl)-4-fluoropyrrolidin-3-yl)-4-(trifluoromethoxy)benzenesulfonamide] | 55.8
6 | O=S(=O)(NC1(c2ccc(F)cc2)CCNCC1)c1ccc(OC(F)(F)F)cc1 [Compound 59, N-(4-(4-fluorophenyl)piperidin-4-yl)-4-(trifluoromethoxy)benzenesulfonamide] | 18.1
7 | CC(C)(C)OC(=O)N1CCC(NS(=O)(=O)c2ccc(OC(F)(F)F)cc2)(c2ccc(Cl)cc2)C1 (centres unmarked) [Compound 70] | 21.7
8 | O=S(=O)(NC1CCN(c2cccc(Br)c2)C1)c1ccc(OC(F)(F)F)cc1 (centres unmarked) [Compound 3] | 77.1
9 | CC1CC(NS(=O)(=O)c2ccc(OC(F)(F)F)cc2)CCC1(C)C (centres unmarked) [Compound 8, 4-(trifluoromethoxy)-N-(3,4,4-trimethylcyclohexyl)benzene-sulfonamide] | 73.3
10 | Cc1noc(C)c1S(=O)(=O)NCC1(NS(=O)(=O)c2ccc(OC(F)(F)F)cc2)CCCCC1 [Compound 33] | 53
11 | O=C1CCC(NS(=O)(=O)c2ccc(OC(F)(F)F)cc2)c2ccc(OC(F)F)cc21 (centres unmarked) [Compound 25, N-(6-(difluoromethoxy)-4-oxo-1,2,3,4-tetrahydronaphthalen-1-yl)-4-(trifluoromethoxy)benzene-sulfonamide] | 30
12 | O=S(=O)(NC1(c2ccc(Cl)c(Cl)c2)CCNCC1)c1ccc(OC(F)(F)F)cc1 [Compound 49, N-(4-(3,4-dichlorophenyl)piperidin-4-yl)-4-(trifluoromethoxy)benzenesulfonamide] | 6.75
13 | O=S(=O)(NC1(c2ccc(Cl)c(Cl)c2)CCNC1)c1ccc(OC(F)(F)F)cc1 (centres unmarked) [Compound 41, N-(3-(3,4-dichlorophenyl)pyrrolidin-3-yl)-4-(trifluoromethoxy)benzene-sulfonamide] | 10.4
14 | O=C(OCc1ccccc1)N1CCC(NS(=O)(=O)c2ccc(OC(F)(F)F)cc2)(c2ccc(Cl)c(Cl)c2)C1 (centres unmarked) [Compound 40] | 25.5
15 | O=S(=O)(NC1(c2ccc(C(F)F)cc2)CCNCC1)c1ccc(OC(F)(F)F)cc1 [Compound 100, N-(4-(4-(difluoromethyl)phenyl)piperidin-4-yl)-4-(trifluoromethoxy)benzenesulfonamide] | 22.3
16 | O=S(=O)(NC1(c2ccc(Cl)cc2)CCNC1)c1ccc(Oc2ccc(C(F)(F)F)cc2)cc1 (centres unmarked) [Compound 57, N-(3-(4-chlorophenyl)pyrrolidin-3-yl)-4-(4-(trifluoromethyl)phenoxy)benzenesulfonamide] | 10.6
17 | O=S(=O)(NC1(c2ccccc2)CC2CCC(C1)N2)c1ccc(OC(F)(F)F)cc1 (centres unmarked) [Compound 86, N-(3-phenyl-8-azabicyclo[3.2.1]octan-3-yl)-4-(trifluoromethoxy)benzenesulfonamide] | 23.7
18 | O=S(=O)(NC1(c2ccc(Cl)c(F)c2)CNC1)c1ccc(OC(F)(F)F)cc1 [Compound 58, N-(3-(4-chloro-3-fluorophenyl)azetidin-3-yl)-4-(trifluoromethoxy)benzenesulfonamide] | 23.2

Further compounds by falling GI50, results first:

Row | GI50 [µM] | Structure (SMILES)
19 | 70 | O=S(=O)(NC1CCC2CN(Cc3ccccc3)CC21)c1ccc(OC(F)(F)F)cc1 (centres unmarked) [Compound 22]
20 | 55.6 | O=S(=O)(NC1CCCCCC1c1ccccc1)c1ccc(OC(F)(F)F)cc1 (centres unmarked) [Compound 13, N-(2-phenylcycloheptyl)-4-(trifluoromethoxy)benzene-sulfonamide]
21 | 46.6 | O=S(=O)(NC1(c2ccc(Cl)cn2)CCNCC1)c1ccc(OC(F)(F)F)cc1 [Compound 87, N-(4-(5-chloropyridin-2-yl)piperidin-4-yl)-4-(trifluoromethoxy)benzenesulfonamide]
22 | 45.8 | O=S(=O)(NC1(c2ncc(Cl)cc2F)CCNCC1)c1ccc(OC(F)(F)F)cc1 [Compound 95, N-(4-(5-chloro-3-fluoropyridin-2-yl)piperidin-4-yl)-4-(trifluoromethoxy)benzenesulfonamide]
23 | 45 | CC(C)C1N(Cc2ccccc2)CC12C[C@@H](O)[C@H](NS(=O)(=O)c1ccc(OC(F)(F)F)cc1)C2 (mixture of isomers) [Compound 31]
24 | 38 | O=S(=O)(NC1(c2ccc(Cl)c(Cl)c2)CCN(Cc2ccccc2)C1)c1ccc(Oc2ccc(C(F)(F)F)cc2)cc1 (centres unmarked) [Compound 55, N-(1-benzyl-3-(3,4-dichlorophenyl)pyrrolidin-3-yl)-4-(4-(trifluoromethyl)phenoxy)benzenesulfonamide]
25 | 33 | O=S(=O)(N[C@@H]1CCN(C2CC2)[C@H]1c1ccc(F)c(F)c1)c1ccc(OC(F)(F)F)cc1 (racemic) [Compound 34]
26 | 30.7 | CC(C)Oc1ccc(S(=O)(=O)NC2(c3ccc(F)cc3)CCNCC2)cc1 [Compound 75, N-(4-(4-fluorophenyl)piperidin-4-yl)-4-isopropoxybenzenesulfonamide]
27 | 30 | CC(C)(C)OC(=O)N1CCC(CF)(NS(=O)(=O)c2ccc(OC(F)(F)F)cc2)C1 (centres unmarked) [Compound 32]
28 | 19.5 | CN1CCC(NS(=O)(=O)c2ccc(OC(F)(F)F)cc2)(c2ccc(Cl)cc2)C1 (centres unmarked) [Compound 69, N-(3-(4-chlorophenyl)-1-methylpyrrolidin-3-yl)-4-(trifluoromethoxy)benzenesulfonamide]
29 | 16 | CC(C)(C)N1CCC(NS(=O)(=O)c2ccc(OC(F)(F)F)cc2)C1c1ccc(Cl)c(F)c1 (single isomer, unassigned; enantiomer 1) [Compound 37, trans N-(1-(tert-butyl)-2-(4-chloro-3-fluorophenyl)pyrrolidin-3-yl)-4-(trifluoromethoxy)benzene-sulfonamide enantiomer 1]
30 | 14.4 | O=S(=O)(NC1(c2ccc(F)c(F)c2)CCNCC1)c1ccc(OC(F)(F)F)cc1 [Compound 82, N-(4-(3,4-difluorophenyl)piperidin-4-yl)-4-(trifluoromethoxy)benzenesulfonamide]
31 | 11.6 | O=S(=O)(NC1(c2ccc(Cl)cc2)CCNCC1)c1ccc(C(F)(F)F)cc1 [Compound 97, N-(4-(4-chlorophenyl)piperidin-4-yl)-4-(trifluoromethyl)benzenesulfonamide]
32 | 10.4 | O=S(=O)(N[C@@H]1CNC[C@@H]1c1ccc(Cl)c(Cl)c1)c1ccc(OC(F)(F)F)cc1 (racemic) [Compound 51, rac N-((3R,4R)-4-(3,4-dichlorophenyl)pyrrolidin-3-yl)-4-(trifluoromethoxy)benzenesulfonamide]
